These results are taken from US20250085273A1, “NOVEL RAPID DRUG DISCOVERY FOR SEPSIS AND AGENTS FOR USE AS SEPSIS THERAPY” (priority 2023, published 2025).

Holding throughout (type): in vivo, Danio rerio
Assay [1] concerns 3-dpf Zebrafish Embryos Challenged with LPS (P. aeruginosa 60 μg/mL). The settings on record: P. aeruginosa LPS 60 μg/mL, compound 10 μM; for 3 dpf Embryos Percent Rescue (Mort + Tail Edema): initial 3-dpf screen shown for reference; for Percent Rescue (Mort + Tail Edema): 3-dpf embryos, n=16; for Percent Rescue (Mort + Tail Edema) / rescue of tail edema and mortality (sepsis rescue rate) at 3-dpf: 24 hours. As to the method:
Healthy, normally developing embryos collected from the adult AB zebrafish spawning events were treated with 75 μM of 1-phenyl 2-thiourea (PTU) in EM prior to 24 hours post fertilization (hpf) to block pigmentation formation (Karlsson et al, 2001). These embryos were then placed into an incubator at 28.5° C. until they reached 3-dpf. Embryos were then removed from the incubator and plated individually into the wells of 96 well plates containing 50 μL of EM.
A super stock of 120 μg/mL of P. aeruginosa LPS was made up in EM in a glass container. This stock was then used to make sub stocks of 120 μg/mL P. aeruginosa LPS (positive control) and 120 μg/mL P. aeruginosa LPS containing 20 μM of test drug in glass scintillation vials. Immediately after the sub stocks were made, the wells were dosed with either 50 μL of 120 μg/mL of P. aeruginosa, 120 μg/mL of P. aeruginosa with 20 μM of test drug, or EM (1:1 Dilution). Each 96 well plate had one LPS positive control (n=16), 4 different test drugs with P. aeruginosa LPS (n=16 per drug), and one negative control (n=16). Once the plates were dosed, they were covered with parafilm and placed into an incubator at 28.5° C. The plates were removed at 6- and 24-hours post exposure to be scored for tail edema and mortality. All 644 drugs evaluated for rescue from mortality and tail edema induced by P. aeruginosa LPS exposure as compared to LPS-treated controls after 24 hours of exposure.
3-dpf embryos were challenged with 60 μg/mL P. aeruginosa LPS in combination with single 10 μM concentration of each compound for 24 hours (n=16 fish per compound). […] Other 29 compounds exceeded 60% rescue of tail edema and mortality at 24 hours post exposure.

In assay [2] the test system is 5-dpf zebrafish larvae challenged with P. aeruginosa LPS 60 μg/mL. The settings on record: compound 10 μM; for 5 dpf Embryos Percent Rescue (Mort + Tail Edema): 5-dpf larvae. The text has this: Confirmatory testing followed the same methods as the initial testing but used 5-dpf larvae instead of the 3-dpf larvae that were used for the initial screening because they were easier to handle and replicated the methods of Philip et al. (2017).
Next, follow-on 5-dpf screening was implemented to confirm initial screening with more larvae. Zebrafish swim faster at 5-dpf (requiring more time to load 96 plates), and all major organ systems are functioning at 5-dpf and thus determined as advantageous for follow-on confirmation.

Assay [3] relates to larval zebrafish exposed to Pseudomonas aeruginosa 60 μg/mL lipopolysaccharide (LPS). As to the kind of experiment: Zebrafish endotoxicity/sepsis model drug screening, statements without larval stage. The settings on record: for rescue from mortality / rescue from vascular damage (tail edema): zebrafish endotoxemia model. An excerpt:
To identify potential sepsis drug candidates, an optimized larval zebrafish model of endotoxicity/sepsis was used to screen commercial libraries of U.S. Food and Drug Administration (FDA)-approved drugs and other active pharmaceutical ingredients (API) known to affect pathways implicated in the initiation and progression of sepsis in humans (i.e., inflammation, mitochondrial dysfunction, coagulation, and apoptosis). In this model, endotoxicity was induced in 3- and 5-day post fertilization larval zebrafish (characterized by mortality and tail fin edema (vascular leakage)) by immersion exposure to Pseudomonas aeruginosa 60 μg/mL lipopolysaccharide (LPS) for 24 hours, then screened for the rescue potential of 644 selected drugs simultaneously with LPS at 10 μM. After LPS exposure, a neurobehavioral assay (light-dark test) was performed to further evaluate rescue from endotoxicity and to determine possible off-target drug side effects.

The subject of assay [4] is zebrafish (4 dpf pre-treated, LPS exposure at 5-dpf) challenged with P. aeruginosa LPS 60 μg/mL. The settings on record: for 24 hour Tail Edema, No-Drug Pretreatment / 24 Hour Mortality and Tail Edema, Drug Pretreatment / 24 Hour Mortality, Drug Pretreatment / 24 hour Tail Edema, Drug Pretreatment / 24 Hour Mortality and Tail Edema, No-Drug Pretreatment / 24 Hour Mortality, No Drug Pretreatment: number of n = 16 fish; for 24 hour Tail Edema, No-Drug Pretreatment: 10 μM drug with LPS 60 μg/mL; for 24 hour Tail Edema, No-Drug Pretreatment / 24 Hour Mortality and Tail Edema, No-Drug Pretreatment / 24 Hour Mortality, No Drug Pretreatment: no 24-hour pre-treatment; for 24 Hour Mortality and Tail Edema, Drug Pretreatment / 24 Hour Mortality, Drug Pretreatment: 24-hour 10 μM drug pre-treatment; for 24 hour Tail Edema, Drug Pretreatment: 24-hour 10 μM drug pre-treatment before LPS 60 μg/mL. As to the method: Drugs identified with >80% rescue were subjected to additional testing. Drug pretreatment for 24 hours prior to LPS challenge was evaluated to determine if any prophylactic benefit could be realized with any of the top rescue drugs. The intent was to determine if drug pre-treatment might be used at the point of injury as a preventative therapeutic before the onset of infection and development of sepsis. Parallel groups of fish received a 24-hour drug pre-treatment or no drug pre-treatment prior to LPS challenge. For this test, 4 dpf PTU-treated zebrafish embryos were placed into 96 well plates containing 100 μL of EM. […] All plates were covered with parafilm and placed into an incubator at 28.5° C. for 24 hours. […] Once the plates were dosed, they were covered with parafilm and placed into an incubator at 28.5° C. The plates were removed at 6- and 24-hours post exposure and scored for tail edema and mortality. Once the 24-hour tail edema and mortality endpoints were collected, a neurobehavioral test was conducted as described in section 2.8.

Where a name gives a salt, the structure may show the parent alone. Read-outs that look alike come from different tables or passages of the source.

As for `O=C(O)c1cn(C2CC2)c2cc(N3CCNCC3)c(F)cc2c1=O` [Compound 34, Ciprofloxacin (hydrochloride monohydrate)], the “3 dpf Embryos Percent Rescue (Mort + Tail Edema)” value (shortened to “3 dpf Embryos Percent Rescue”) in assay [1] worked out at 13%. In addition, the “5 dpf Embryos Percent Rescue (Mort + Tail Edema)” value (“5 dpf Embryos Percent Rescue” for short) in assay [2] is 6%. Further, in assay [3], the rescue from mortality entry is on record as “provided rescue from mortality” and the “rescue from vascular damage (tail edema)” value is listed as “did not elicit rescue from vascular damage”.

Consider `CC(C)NNC(=O)c1ccncc1` [Compound 322, Iproniazid], for which, in assay [1], the “Percent Rescue (Mort + Tail Edema)” value amounted to 63%; the “rescue of tail edema and mortality (sepsis rescue rate) at 3-dpf” value (“rescue … at 3-dpf” below) amounted to 63%; the “3 dpf Embryos Percent Rescue” value is recorded as 63%. Further, in assay [2], the “5 dpf Embryos Percent Rescue” value stood at 81%; the “rescue of tail edema and mortality (sepsis rescue rate) at 5-dpf” value (shortened to “rescue … at 5-dpf”) was 81%. In assay [4], the “24 hour Tail Edema, No-Drug Pretreatment” value is listed as 1 fish; the “24 Hour Mortality and Tail Edema, Drug Pretreatment” value came out at 16 fish; the “24 Hour Mortality, Drug Pretreatment” value was determined as 16 fish; the “24 hour Tail Edema, Drug Pretreatment” value is recorded as 0 fish. In assay [4], the “24 Hour Mortality and Tail Edema, No-Drug Pretreatment” value is on record as 16 fish; the “24 Hour Mortality, No Drug Pretreatment” value was found to be 15 fish.

As to `CN1c2c(nc(N)[nH]c2=O)NC[C@@H]1CNc1ccc(C(=O)N[C@@H](CCC(=O)O)C(=O)O)cc1` [Compound 344, Levomefolic acid], in assay [1], the “Percent Rescue (Mort + Tail Edema)” value is 63%; the “rescue … at 3-dpf” value worked out at 63%; the “3 dpf Embryos Percent Rescue” value is 63%. In assay [2], the “5 dpf Embryos Percent Rescue” value is 88%; the “rescue … at 5-dpf” value was 88%. For the same molecule, in assay [4], the “24 hour Tail Edema, No-Drug Pretreatment” value came to 1 fish; the “24 Hour Mortality and Tail Edema, Drug Pretreatment” value is on record as 16 fish; the “24 Hour Mortality, Drug Pretreatment” value is given as 16 fish; the “24 hour Tail Edema, Drug Pretreatment” value came out at 0 fish. Besides, in assay [4], the “24 Hour Mortality and Tail Edema, No-Drug Pretreatment” value came out at 16 fish; the “24 Hour Mortality, No Drug Pretreatment” value came out at 15 fish.

As for `O=C1Cc2cc(CCN3CCN(c4nsc5ccccc45)CC3)c(Cl)cc2N1` [Compound 361, Ziprasidone], in assay [1], the “Percent Rescue (Mort + Tail Edema)” value was found to be 63%; the “rescue … at 3-dpf” value was 63%; the “3 dpf Embryos Percent Rescue” value worked out at 63%. The “rescue … at 3-dpf” value in assay [1] (listed as Ziprasidone) is listed as 63%. Besides, in assay [2], the “5 dpf Embryos Percent Rescue” value was found to be 100%. Besides, the “Pre-Treatment Rescue (n = 16)” value in assay [4] (24-hour drug pre-treatment, P. aeruginosa LPS 60 μg/mL) came out at 75%. The “No Pre-Treatment Rescue (n = 16)” value in assay [4] (no 24-hour drug pre-treatment, P. aeruginosa LPS 60 μg/mL) turned out to be 56%. Besides, in assay [4] (listed as Ziprasidone), the “24 hour Tail Edema, Drug Pretreatment” value came out at 4 fish; the “24 Hour Mortality and Tail Edema, Drug Pretreatment” value turned out to be 10 fish; the “24 Hour Mortality, Drug Pretreatment” value is listed as 6 fish; the “24 Hour Mortality and Tail Edema, No-Drug Pretreatment” value stood at 10 fish. Besides, the “24 Hour Mortality, No Drug Pretreatment” value in assay [4] (listed as Ziprasidone) came to 8 fish.

Turning to `Cc1ccc(Sc2ccccc2N2CCNCC2)c(C)c1` [Compound 376, Vortioxetine], in assay [1], the “Percent Rescue (Mort + Tail Edema)” value was found to be 63%; the “rescue … at 3-dpf” value is given as 63%; the “3 dpf Embryos Percent Rescue” value was 63%. For the same molecule, in assay [2], the “5 dpf Embryos Percent Rescue” value came out at 88%; the “rescue … at 5-dpf” value is on record as 88%. For the same molecule, in assay [4], the “24 hour Tail Edema, No-Drug Pretreatment” value is given as 0 fish; the “24 Hour Mortality and Tail Edema, Drug Pretreatment” value is on record as 16 fish; the “24 Hour Mortality, Drug Pretreatment” value is 16 fish; the “24 hour Tail Edema, Drug Pretreatment” value was 0 fish. In addition, in assay [4], the “24 Hour Mortality and Tail Edema, No-Drug Pretreatment” value is 16 fish; the “24 Hour Mortality, No Drug Pretreatment” value stood at 16 fish.

Take `CCCCCCCCCCCCCCCC(=O)OC1CCCn2c1nc(C)c(CCN1CCC(c3noc4cc(F)ccc34)CC1)c2=O` (centres unmarked) [Compound 429, Paliperidone palmitate]: in assay [1], the “Percent Rescue (Mort + Tail Edema)” value was determined as 94%; the “rescue … at 3-dpf” value is on record as 94%; the “3 dpf Embryos Percent Rescue” value is reported as 94%. Besides, in assay [2], the “5 dpf Embryos Percent Rescue” value stood at 100%; the “rescue … at 5-dpf” value is listed as 100%. Further, in assay [4], the “24 hour Tail Edema, No-Drug Pretreatment” value turned out to be 3 fish; the “24 Hour Mortality and Tail Edema, Drug Pretreatment” value was determined as 12 fish; the “24 Hour Mortality, Drug Pretreatment” value came to 10 fish; the “24 hour Tail Edema, Drug Pretreatment” value is reported as 2 fish. Also, in assay [4], the “24 Hour Mortality and Tail Edema, No-Drug Pretreatment” value was 9 fish; the “24 Hour Mortality, No Drug Pretreatment” value was determined as 6 fish.

Consider `Clc1ccc(CCCOCCCN2CCCCC2)cc1` [Compound 435, Pitolisant], for which, in assay [1], the “Percent Rescue (Mort + Tail Edema)” value is 94%; the “rescue … at 3-dpf” value is 94%; the “3 dpf Embryos Percent Rescue” value came to 94%. Further, in assay [2], the “5 dpf Embryos Percent Rescue” value is listed as 88%; the “rescue … at 5-dpf” value is reported as 88%. In assay [4], the “24 hour Tail Edema, No-Drug Pretreatment” value is on record as 2 fish; the “24 Hour Mortality and Tail Edema, Drug Pretreatment” value stood at 16 fish; the “24 Hour Mortality, Drug Pretreatment” value was determined as 16 fish; the “24 hour Tail Edema, Drug Pretreatment” value worked out at 0 fish. For the same molecule, in assay [4], the “24 Hour Mortality and Tail Edema, No-Drug Pretreatment” value came out at 15 fish; the “24 Hour Mortality, No Drug Pretreatment” value came out at 13 fish.

As for `O=C(c1ccc(F)cc1)C1CCN(CCn2c(=O)[nH]c3ccccc3c2=O)CC1` [Compound 437, Ketanserin (tartrate)], in assay [1], the “Percent Rescue (Mort + Tail Edema)” value turned out to be 100%; the “rescue … at 3-dpf” value worked out at 100%; the “3 dpf Embryos Percent Rescue” value is 100%. Further, in assay [2], the “5 dpf Embryos Percent Rescue” value amounted to 100%; the “rescue … at 5-dpf” value amounted to 100%. Further, the “rescue … at 5-dpf” value in assay [2] (listed as ketanserin tartrate) is recorded as 100%. In assay [4], the “24 hour Tail Edema, No-Drug Pretreatment” value is 0 fish; the “24 Hour Mortality and Tail Edema, Drug Pretreatment” value was 0 fish; the “24 Hour Mortality, Drug Pretreatment” value is reported as 0 fish; the “24 hour Tail Edema, Drug Pretreatment” value came out at 0 fish. Also, in assay [4], the “24 Hour Mortality and Tail Edema, No-Drug Pretreatment” value came out at 0 fish; the “24 Hour Mortality, No Drug Pretreatment” value is recorded as 0 fish.

For `CN1C2CCCC1CC(NC(=O)c1nn(C)c3ccccc13)C2` (centres unmarked) [Granisetron], in assay [3], the rescue from mortality result is on record as “significant reduction in mortality” and the “rescue from vascular damage (tail edema)” value was “did not rescue from vascular damage (tail edema)”.

For `Cc1nccn1CC1CCc2c(c3ccccc3n2C)C1=O` (centres unmarked) [Ondansetron], the “efficacy in the zebrafish endotoxicity sepsis model” value in assay [3] (in vivo) is given as “not efficacious”.
